Measured values taken from patent publication US20030199098A1, “Advanced tool for the quantification uniformity within biological processes and conversions” (priority 2000, published 2003).

Assays:
clinical = settings: male, human, in vivo
From the text: FIG. 3 ethanol concurrency test (simultaneously performed on the same human subject during a single experimental session) in a graphical representation
The following TABLE 1 of results describes the FIG. 3 curves:
The INTOXIMETER EC/IR 3000, which was used for the data presented in the TABLE 1, was made by Intoximeter, Inc. of St. Louis, Mo. The transcutaneous ethanol sensors (TES #33, #39) were made by Giner Inc. of Waltham, Mass.

[1] = humans, routine clinical experiments
From the text: This tool is applicable no matter which technique or equipment is used to obtain the initial readings.

half-life (clinical): 1.48 h | Index-K efficiency corridor for alcohol catabolism [1]: up to 3.4
SMILES: CCO [ethanol]
